Results from patent US20260250318A1, “COMPOSITIONS AND METHODS FOR CROSSING THE BLOOD BRAIN BARRIER” (VOYAGER THERAPEUTICS, INC., priority 2022, published 2026).

Key:
[1] = tested on: brain, spinal cord, and DRG of the NHPs; assay: NGS fold enrichment of synthetic library (passage 3) in NHPs, first cross-species screen; type: in vivo, cynomolgus macaques (Macaca fascicularis); conditions: synthetic library passage 3, intravenous, relative to wild-type AAV9
Method: (§1) After creation of the synthetic library with the sub-selected variants, the synthetic library was screened (passage 3) in two NHPs (2-4 years of age) and two strains of mice, BALB/c (n=3, 6-8 weeks of age) and C57Bl/6 mice (n=3, 6-8 weeks of age), in a first cross-species evolution screen. The animals were injected intravenously with the synthetic library. After a period in vivo, (e.g., 28-days) RNA was extracted from nervous tissue, e.g., brain, spinal cord, and DRG of the NHPs and the brains of mice. Following RNA recovery and RT-PCR amplification, a systematic NGS enrichment analysis was performed, and the peptides comprised within the variants were identified and the capsid enrichment ratio for each variant compared to the wild-type AAV9 control was calculated (fold enrichment relative to wild-type AAV9) (Table 9). […] All animals were dosed intravenously at […] across the screen.

[2] = tested on: brain; assay: NGS fold enrichment of synthetic library (passage 3) in BALB/c mice, first cross-species screen; type: in vivo; conditions: synthetic library passage 3, intravenous, relative to wild-type AAV9
Method: as §1

[3] = tested on: brain; assay: NGS fold enrichment of synthetic library (passage 3) in C57Bl/6 mice, first cross-species screen; type: in vivo; conditions: synthetic library passage 3, intravenous, relative to wild-type AAV9
Method: as §1

[4] = tested on: brain; assay: Maturation of TTM-001 capsid, NGS enrichment in brain of CD-1 Outbred mice; type: in vivo; conditions: NGS fold-enrichment of TTM-001 matured AAV capsid variants in the brain of CD-1 Outbred mice; intravenous 1.0×10^12 VG/dose; 14 days in life; RNA; relative to non-matured TTM-001 control
Method in brief: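 Pooled matured TTM-001 or TTM-002 capsid libraries (loop IV region randomized by triple-codon or low-frequency point mutagenesis) dosed IV via tail vein at 1.0×10^12 VG/dose to three female CD-1 mice. Brain RNA taken after 14 days; RT-PCR and NGS gave fold enrichment versus parent TTM-001 or TTM-002 control.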

[5] = tested on: brains, heart, liver, muscle, and DRG of the NHPs; assay: Maturation of TTM-001 and TTM-002 capsids, NGS enrichment in NHP tissues; type: in vivo; conditions: NGS, relative to AAV9 control
Method in brief: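 Variants carry mutations within and flanking the loop IV peptide insert: positions 450–466 were triplet-randomized, while positions 449–466 received low-frequency point mutations. The combined pool went into two NHPs, and each peptide was scored by NGS enrichment ratio against AAV9.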

[6] = RNA from spinal cord of NHPs, NGS
[7] = RNA from brain of BALB/c mice, NGS
[8] = RNA from brain of C57Bl/6 mice, NGS

Sequence | Fold enrichment over TTM-001 [4] [fold] | further results
GAFHLAASGQNQQT |  | Fold enrichment over AAV9 in the brain of NHPs ([1]; RNA from brain of NHPs, NGS): 1.369 fold; Fold enrichment over AAV9 in the spinal cord of NHPs [1, 6]: 18.165 fold; Fold enrichment over AAV9 in the brain of Mice (BALB/c) [2, 7]: 0.775 fold; Fold enrichment over AAV9 in the brain of Mice (C57Bl/6) [3, 8]: 0.994 fold
GAGLIMHSGQNQQT |  | Fold enrichment over AAV9 in the brain of NHPs ([1]; RNA NGS, brain of NHPs): 1.425 fold; Fold enrichment over AAV9 in the spinal cord of NHPs ([1]; RNA NGS, spinal cord of NHPs): 1.408 fold; Fold enrichment over AAV9 in the brain of Mice (BALB/c) ([2]; RNA NGS, brain of BALB/c mice): 0.511 fold; Fold enrichment over AAV9 in the brain of Mice (C57Bl/6) ([3]; RNA NGS, brain of C57Bl/6 mice): 0.565 fold
GAGSIIPSGQNQQT |  | Fold enrichment over AAV9 in the brain of NHPs ([1]; RNA NGS, brain of NHPs): 2.129 fold; Fold enrichment over AAV9 in the spinal cord of NHPs ([1]; RNA NGS, spinal cord of NHPs): 7.164 fold; Fold enrichment over AAV9 in the brain of Mice (BALB/c) ([2]; RNA NGS, brain of BALB/c mice): 0.249 fold; Fold enrichment over AAV9 in the brain of Mice (C57Bl/6) ([3]; RNA NGS, brain of C57Bl/6 mice): 0.595 fold
GAGVHMVSGQNQQT |  | Fold enrichment over AAV9 in the brain of NHPs ([1]; RNA NGS, brain of NHPs): 1.987 fold; Fold enrichment over AAV9 in the spinal cord of NHPs ([1]; RNA NGS, spinal cord of NHPs): 6.488 fold; Fold enrichment over AAV9 in the brain of Mice (BALB/c) ([2]; RNA NGS, brain of BALB/c mice): 0.791 fold; Fold enrichment over AAV9 in the brain of Mice (C57Bl/6) ([3]; RNA NGS, brain of C57Bl/6 mice): 1.055 fold
GALTVMQSGQNQQT |  | Fold enrichment over AAV9 in the brain of NHPs ([1]; RNA NGS, brain of NHPs): 2.381 fold; Fold enrichment over AAV9 in the spinal cord of NHPs ([1]; RNA NGS, spinal cord of NHPs): 0.430 fold; Fold enrichment over AAV9 in the brain of Mice (BALB/c) ([2]; RNA NGS, brain of BALB/c mice): 0.199 fold; Fold enrichment over AAV9 in the brain of Mice (C57Bl/6) ([3]; RNA NGS, brain of C57Bl/6 mice): 0.246 fold
GALVSPISGQNQQT |  | Fold enrichment over AAV9 in the brain of NHPs ([1]; RNA NGS, brain of NHPs): 1.912 fold; Fold enrichment over AAV9 in the spinal cord of NHPs ([1]; RNA NGS, spinal cord of NHPs): 1.051 fold; Fold enrichment over AAV9 in the brain of Mice (BALB/c) ([2]; RNA NGS, brain of BALB/c mice): 0.347 fold; Fold enrichment over AAV9 in the brain of Mice (C57Bl/6) ([3]; RNA NGS, brain of C57Bl/6 mice): 0.640 fold
GAMTVTISGQNQQT |  | Fold enrichment over AAV9 in the brain of NHPs ([1]; RNA NGS, brain of NHPs): 1.542 fold; Fold enrichment over AAV9 in the spinal cord of NHPs ([1]; RNA NGS, spinal cord of NHPs): 6.249 fold; Fold enrichment over AAV9 in the brain of Mice (BALB/c) ([2]; RNA NGS, brain of BALB/c mice): 0.257 fold; Fold enrichment over AAV9 in the brain of Mice (C57Bl/6) ([3]; RNA NGS, brain of C57Bl/6 mice): 0.443 fold
GAMVSHSSGQNQQT |  | Fold enrichment over AAV9 in the brain of NHPs ([1]; RNA NGS, brain of NHPs): 1.833 fold; Fold enrichment over AAV9 in the spinal cord of NHPs ([1]; RNA NGS, spinal cord of NHPs): 8.999 fold; Fold enrichment over AAV9 in the brain of Mice (BALB/c) ([2]; RNA NGS, brain of BALB/c mice): 0.868 fold; Fold enrichment over AAV9 in the brain of Mice (C57Bl/6) ([3]; RNA NGS, brain of C57Bl/6 mice): 0.739 fold
GANMGHVSGQNQQT |  | Fold enrichment over AAV9 in the brain of NHPs ([1]; RNA NGS, brain of NHPs): 2.020 fold; Fold enrichment over AAV9 in the spinal cord of NHPs ([1]; RNA NGS, spinal cord of NHPs): 0.810 fold; Fold enrichment over AAV9 in the brain of Mice (BALB/c) ([2]; RNA NGS, brain of BALB/c mice): 1.138 fold; Fold enrichment over AAV9 in the brain of Mice (C57Bl/6) ([3]; RNA NGS, brain of C57Bl/6 mice): 1.302 fold
GARIQNASGQKQQT |  | Fold enrichment over AAV9 in the brain of NHPs ([1]; RNA NGS, brain of NHPs): 2.300 fold; Fold enrichment over AAV9 in the spinal cord of NHPs ([1]; RNA NGS, spinal cord of NHPs): 2.103 fold; Fold enrichment over AAV9 in the brain of Mice (BALB/c) ([2]; RNA NGS, brain of BALB/c mice): 1.039 fold; Fold enrichment over AAV9 in the brain of Mice (C57Bl/6) ([3]; RNA NGS, brain of C57Bl/6 mice): 1.220 fold
GASHMSISGQNQQT |  | Fold enrichment over AAV9 in the brain of NHPs ([1]; RNA from brain of NHPs, NGS): 1.284 fold; Fold enrichment over AAV9 in the spinal cord of NHPs [1, 6]: 0.462 fold; Fold enrichment over AAV9 in the brain of Mice (BALB/c) [2, 7]: 0.374 fold; Fold enrichment over AAV9 in the brain of Mice (C57Bl/6) [3, 8]: 0.404 fold
GASSLATSGQNQQT |  | Fold enrichment over AAV9 in the brain of NHPs ([1]; RNA from brain of NHPs, NGS): 1.337 fold; Fold enrichment over AAV9 in the spinal cord of NHPs [1, 6]: 0.703 fold; Fold enrichment over AAV9 in the brain of Mice (BALB/c) [2, 7]: 0.217 fold; Fold enrichment over AAV9 in the brain of Mice (C57Bl/6) [3, 8]: 0.423 fold
KTINGSSSPHWVAQNQQT (peptide inserted in AAV capsid) | 3.277 | 
KTINGSTSPHLFAQNQQT (peptide inserted in AAV capsid) | 2.041 | 
KTINGSTSPHRRAQNQQT (peptide inserted in AAV capsid) | 3.089 | 
KTINGSTSPHWSAQNQQT (peptide inserted in AAV capsid) | 2.043 | 
KTINGSTSPHYLAQNQQT (peptide inserted in AAV capsid) | 2.665 | 
KTINGSVSPHFMAQNQQT (peptide inserted in AAV capsid) | 2.287 | 
KTINGSVSPHLYAQNQQT (peptide inserted in AAV capsid) | 2.028 | 
KTINGSVSPHRRAQNQQT (peptide inserted in AAV capsid) | 2.186 | 
KTINGSVSPHSWAQNQQT (peptide inserted in AAV capsid) | 2.562 | 
KTINGSVSPHYLAQNQQT (peptide inserted in AAV capsid) | 2.203 | 
KTINGSVSPHYVAQNQQT (peptide inserted in AAV capsid) | 2.022 | 

Sequence | Fold enrichment over TTM-001 [4] [fold] | further results
KTINGSWSPHLVAQNQQT (peptide inserted in AAV capsid) | 2.084 | 
KTINGSWSPHMLAQNQQT (peptide inserted in AAV capsid) | 2.106 | 
KTINGTLSPHRKAQNQQT | 2.307 | 
KTINGTPSPHRKAQNQQT | 2.244 | 
KTINGTRSPHAKAQNQQT | 2.071 | 
KTINGTRSPHTKAQNQQT | 2.203 | 
KTINGTSSPHCKAQNQQT | 2.017 | 
KTINGVASPHRKAQNQQT | 2.261 | 
KTINGVLSPHRKAQNQQT | 2.868 | 
KTINGVLSPHWKAQNQQT | 2.199 | 
KTINGVPSPHWKAQNQQT | 2.758 | 
KTINGVTSPHWKAQNQQT | 2.387 | 
KTINGVVSPHRKAQNQQT | 3.106 | 
KTINGWRSPHSKAQNQQT | 2.160 | 
KTINGYLSPHRKAQNQQT | 2.762 | 
KTINGYRSPHSKAQNQQT | 2.140 | 
KTINGYSSPHRKAQNQQT | 2.007 | 
KTINLIRSPHSKAQNQQT | 2.920 | 
KTINLIWSPHSKAQNQQT | 2.035 | 
KTINLRFSPHSKAQNQQT | 2.611 | 
KTINLSRSPHSKAQNQQT | 2.246 | 
KTINMLRSPHSKAQNQQT | 2.000 | 
KTINMRVSPHSKAQNQQT | 3.073 | 

Sequence | Fold enrichment over TTM-001 [4] [fold] | further results
KTINMSRSPHSKAQNQQT | 2.622 | 
KTINRHSSPHSKAQNQQT | 2.877 | 
KTINRRLSPHSKAQNQQT | 2.678 | 
KTINRVISPHSKAQNQQT | 2.169 | 
KTINSARSPHSKAQNQQT | 2.292 | 
KTINSPRSPHSKAQNQQT | 2.264 | Fold Enrichment relative to AAV9, DRG (NHP) ([5]; NHP DRG): 0.000 fold; Fold Enrichment relative to AAV9, Brain (NHP) ([5]; NHP brain): 0.000 fold; Fold Enrichment relative to AAV9, Heart (NHP) ([5]; NHP heart): 0.000 fold; Fold Enrichment relative to AAV9, Liver DNA (NHP) ([5]; NHP liver DNA): 1.554 fold; Fold Enrichment relative to AAV9, Liver RNA (NHP) ([5]; NHP liver RNA, TTM-001 and TTM-002 matured AAV capsid variants): 27.240 fold; Fold Enrichment relative to AAV9, Muscle (NHP) ([5]; NHP muscle): 0.000 fold
KTINSRFSPHSKAQNQQT | 2.032 | 
KTINTIESPHSKAQNQQT | 2.331 | 
KTINTRPSPHSKAQNQQT | 2.011 | 
KTINTSRSPHSKAQNQQT | 2.520 | 
KTIRLRGSPHSKAQNQQT | 2.408 | 
KTIRSKGSPHSKAQNQQT | 2.559 | 
KTLRRSGSPHSKAQNQQT | 2.117 | 
KTRKSSGSPHSKAQNQQT | 2.065 | 
KTRRSSGSPHSKAQNQQT | 2.438 | 
KTRSRSGSPHSKAQNQQT | 3.669 | 
KTSRCSGSPHSKAQNQQT | 2.345 | 
KTTHCSGSPHSKAQNQQT | 2.672 | 
KTWVRSGSPHSKAQNQQT | 2.186 | 
KWSPGSGSPHSKAQNQQT (peptide inserted in AAV capsid) | 2.764 | 
KYLLGSGSPHSKAQNQQT (peptide inserted in AAV capsid) | 2.253 | 
KYLSGSGSPHSKAQNQQT (peptide inserted in AAV capsid) | 4.264 | 
KYSVGSGSPHSKAQNQQT (peptide inserted in AAV capsid) | 3.365 | 
